Test results published in patent US20240076440A1, “PROCESS OF FORMING A CONJUGATED POLYMER” (Sumitomo Chemical Co., ltd., priority 2019, published 2024).

Assay: Solubilities of Monomers 1 and 2 in toluene, MeOH and water
Type: physicochemical

Row | Compound | Solubility in MeOH (Conc 0.1 mg/ml) | Solubility in Toluene (Conc 0.1 mg/ml) | Solubility in MeOH (Conc 1 mg/ml) | Solubility in Toluene (Conc 1 mg/ml) | Solubility in Water (Conc 1 mg/ml) | Solubility in MeOH (Conc 50 mg/ml) | Solubility in MeOH (Conc 75 mg/ml) | Solubility in Toluene (Conc 75 mg/ml) | Solubility in Toluene (Conc 1 g/ml) | Solubility in Toluene (Conc 2 g/ml) | Solubility in Water (Conc 50 mg/ml)
1 | CCCCCCCCC1(CCCCCCCC)c2cc(B3OCCO3)ccc2-c2ccc(B3OCCO3)cc21 [Monomer 1] | Soluble | Soluble | Soluble | Soluble | Insoluble | Soluble | Not Soluble | soluble | Soluble | Soluble | 
2 | C[N+](C)(C)CCC1(CC[N+](C)(C)C)c2cc(Br)ccc2-c2ccc(Br)cc21 [Monomer 2] |  | Insoluble |  | Insoluble | Soluble | Soluble |  |  |  |  | Insoluble
